Source: PubChem BioAssay (NCI)
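Briefly, cells in 96-well plates were exposed to five compound concentrations for 48 h, and endpoints were estimated by linear interpolation. GI50 marks 50% less growth. TGI: concentration producing complete growth inhibition.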

Tests used:
Test in all cases: NCI anticancer screen, dose series, 48 h
786-0 renal = tested on: 786-0 renal
CAKI-1 renal = tested on: CAKI-1 renal
KM12 colon = tested on: KM12 colon
SF-295 CNS = tested on: SF-295 CNS
MCF7 breast = tested on: MCF7 breast
RPMI-8226 leukemia = tested on: RPMI-8226 leukemia
NCI-H460 lung = tested on: NCI-H460 lung
DU-145 prostate = tested on: DU-145 prostate
COLO 205 colon = tested on: COLO 205 colon
SF-539 CNS = tested on: SF-539 CNS
HOP-62 NSCLC = tested on: HOP-62 NSCLC
OVCAR-4 ovarian = tested on: OVCAR-4 ovarian
SN12C renal = tested on: SN12C renal
NCI-H23 lung = tested on: NCI-H23 lung
OVCAR-3 ovarian = tested on: OVCAR-3 ovarian
OVCAR-8 ovarian = tested on: OVCAR-8 ovarian
SNB-75 CNS = tested on: SNB-75 CNS
K-562 leukemia = tested on: K-562 leukemia
M14 melanoma = tested on: M14 melanoma
MDA-MB-231 breast = tested on: MDA-MB-231 breast
OVCAR-5 ovarian = tested on: OVCAR-5 ovarian
HL-60(TB) leukemia = tested on: HL-60(TB) leukemia
CCRF-CEM leukemia = tested on: CCRF-CEM leukemia
HT29 colon = tested on: HT29 colon
LOX IMVI melanoma = tested on: LOX IMVI melanoma
HS 578T breast = tested on: HS 578T breast
NCI-H226 lung = tested on: NCI-H226 lung
NCI/ADR-RES ovarian = tested on: NCI/ADR-RES ovarian
TK-10 renal = tested on: TK-10 renal

Compound `Nc1n[nH]c2cc(F)c([C@@H]3Nc4c(F)cc5[nH]ncc5c4[C@H]4C5CCC(C5)[C@@H]34)cc12` (some centres not stated) has a GI50 (786-0 renal) of 211 nM, a TGI (786-0 renal) of 7850 nM and a GI50 (CAKI-1 renal) of 137 nM. It also gave a TGI (CAKI-1 renal) of 3380 nM, a GI50 (KM12 colon) of 129 nM and a TGI (KM12 colon) of 853 nM. For the same compound, the GI50 (SF-295 CNS) was 97.1 nM, the TGI (SF-295 CNS) was 3820 nM and the GI50 (MCF7 breast) was 118 nM. The TGI (MCF7 breast) was 6320 nM, the GI50 (RPMI-8226 leukemia) was 145 nM and the TGI (RPMI-8226 leukemia) was 5220 nM. It also gave a GI50 (NCI-H460 lung) of 117 nM, a TGI (NCI-H460 lung) of 3570 nM and a GI50 (DU-145 prostate) of 157 nM. It also gave a TGI (DU-145 prostate) of 7970 nM, a GI50 (COLO 205 colon) of 124 nM and a TGI (COLO 205 colon) of 1030 nM. It also gave a GI50 (SF-539 CNS) of 79.2 nM, a TGI (SF-539 CNS) of 230 nM and a GI50 (HOP-62 NSCLC) of 195 nM. The TGI (HOP-62 NSCLC) was 6460 nM, the GI50 (OVCAR-4 ovarian) was 566 nM and the TGI (OVCAR-4 ovarian) was 33300 nM. For the same compound, the GI50 (SN12C renal) was 187 nM, the TGI (SN12C renal) was 9460 nM and the GI50 (NCI-H23 lung) was 158 nM. For the same compound, the TGI (NCI-H23 lung) was 5760 nM, the GI50 (OVCAR-3 ovarian) was 105 nM and the TGI (OVCAR-3 ovarian) was 3730 nM. The GI50 (OVCAR-8 ovarian) was 136 nM, the TGI (OVCAR-8 ovarian) was 15200 nM and the GI50 (SNB-75 CNS) was 89.4 nM. It also gave a TGI (SNB-75 CNS) of 635 nM, a GI50 (K-562 leukemia) of 110 nM and a TGI (K-562 leukemia) of 12700 nM. It also gave a GI50 (M14 melanoma) of 107 nM, a TGI (M14 melanoma) of 5830 nM and a GI50 (MDA-MB-231 breast) of 135 nM. The TGI (MDA-MB-231 breast) was 5050 nM, the GI50 (OVCAR-5 ovarian) was 175 nM and the TGI (OVCAR-5 ovarian) was 8520 nM. It also gave a GI50 (HL-60(TB) leukemia) of 100 nM, a TGI (HL-60(TB) leukemia) of 317 nM and a GI50 (CCRF-CEM leukemia) of 127 nM. The TGI (CCRF-CEM leukemia) was 28700 nM, the GI50 (HT29 colon) was 119 nM and the TGI (HT29 colon) was 5390 nM. The GI50 (LOX IMVI melanoma) was 144 nM, the TGI (LOX IMVI melanoma) was 4410 nM and the GI50 (HS 578T breast) was 117 nM. It also gave a TGI (HS 578T breast) of 2950 nM, a GI50 (NCI-H226 lung) of 141 nM and a TGI (NCI-H226 lung) of 1410 nM. For the same compound, the GI50 (NCI/ADR-RES ovarian) was 140 nM, the TGI (NCI/ADR-RES ovarian) was 5670 nM and the GI50 (TK-10 renal) was 2270 nM.
